Experimental data reported in ChEMBL document CHEMBL4706632, “Development of Potential Antitumor Agents from the Scaffolds of Plant-Derived Terpenoid Lactones” (J Med Chem, 2020).
One block for each compound: values may come before it.

What was measured:
[1] = tested on: NCI-H1975; test: Antiproliferative activity against human NCI-H1975 cells incubated for 48 hrs by MTT assay; format: functional, cell-based; conditions: NCI-H1975, 48 h
[2] = tested on: P388; test: Cytotoxicity against mouse P388 cells incubated for 48 hrs by MTT assay; format: functional, cell-based; conditions: P388, 48 h
[3] = tested on: A549; test: Antiproliferative activity against human A549 cells incubated for 48 hrs by MTT assay; format: functional, cell-based; conditions: A549, 48 h
[4] = tested on: MCF7; test: Antiproliferative activity against human MCF7 cells incubated for 48 hrs by SRB assay; format: functional, cell-based; conditions: MCF7, 48 h
[5] = tested on: HCT-116; test: Cytotoxicity against human HCT-116 cells; format: functional, cell-based
[6] = tested on: HT-29; test: Cytotoxicity against human HT-29 cells incubated for 48 hrs by MTT assay; format: functional, cell-based; conditions: HT-29, 48 h
[7] = tested on: HL-60; test: Antiproliferative activity against human HL-60 cells; format: functional, cell-based
[8] = tested on: HL-60; test: Antiproliferative activity against human HL-60 cells incubated for 24 hrs by MTT assay; format: functional, cell-based; conditions: HL-60, 24 h
[9] = tested on: P388; test: Antiproliferative activity against mouse P388 cells; format: functional, cell-based
[10] = tested on: A2058; test: Cytotoxicity against human A2058 cells incubated for 48 hrs by MTT assay; format: functional, cell-based; conditions: A2058, 48 h
[11] = tested on: MDA-MB-231; test: Cytotoxicity against human MDA-MB-231 cells incubated for 48 hrs by MTT assay; format: functional, cell-based; conditions: MDA-MB-231, 48 h
[12] = tested on: HT-29; test: Antiproliferative activity against human HT-29 cells; format: functional, cell-based
[13] = tested on: HeLa; test: Antiproliferative activity against human HeLa cells; format: functional, cell-based
[14] = tested on: MDA-MB-231; test: Cytotoxicity against human MDA-MB-231 cells incubated for 72 hrs by MTT assay; format: functional, cell-based; conditions: MDA-MB-231, 72 h
[15] = tested on: HCT-116; test: Antiproliferative activity against human HCT-116 cells incubated for 72 hrs by WST-1 assay; format: functional, cell-based; conditions: HCT-116, 72 h
[16] = tested on: MCF7; test: Cytotoxicity against human MCF-7 cells incubated for 72 hrs by MTT assay; format: functional, cell-based; conditions: MCF7, 72 h
[17] = Inhibition of PAFR in New Zealand rabbit platelets assessed as reduction in PAF-induced platelet aggregation measured within 5 mins by aggregometry analysis; format: tissue-based; conditions: Oryctolagus cuniculus
[18] = Inhibition of [3H]PAF-acether binding to PAFR in rabbit platelet plasma membranes incubated for 1 hr; format: cell membranes, Oryctolagus cuniculus, Cell membrane
[19] = Suppression of ZEB1 protein level in human T-24 cells incubated for 24 hrs by Western blot analysis; format: functional, cell-based; conditions: T-24, 24 h
[20] = Antiproliferative activity against human OVCA429 cells incubated for 72 hrs by MTT assay; format: functional, cell-based; conditions: OVCA429, 72 h
[21] = tested on: PANC-1; test: Cytotoxicity against human Panc-1 cells incubated for 48 hrs by CCK8 assay; format: functional, cell-based; conditions: PANC-1, 48 h
[22] = tested on: MCF7; test: Antiproliferative activity against human MCF7 cells incubated for 48 hrs by [3H]-thymidine incorporation assay; format: functional, cell-based
[23] = tested on: SW480; test: Antiproliferative activity against human SW480 cells incubated for 72 hrs by MTT assay; format: functional, cell-based; conditions: SW480, 72 h
[24] = tested on: MDA-MB-435; test: Antiproliferative activity against human MDA-MB-435 cells incubated for 48 hrs by [3H]-thymidine incorporation assay; format: functional, cell-based
[25] = tested on: EL4; test: Cytotoxicity against mouse EL4 cells incubated for 48 hrs by sulforhodamine B staining based ELISA; format: functional, cell-based; conditions: EL4, 48 h
[26] = target: Sarcoplasmic/endoplasmic reticulum calcium ATPase 1 (Oryctolagus cuniculus, UniProt P04191); test: Inhibition of rabbit skeletal muscle SERCA1 assessed as reduction in calcium uptake preincubated for 10 mins followed by ATP addition and measured after 4 mins by scintillation liquid method
[27] = tested on: CCRF S-180; test: Cytotoxicity against mouse CCRF S-180 cells incubated for 48 hrs by sulforhodamine B staining based ELISA; format: functional, cell-based; conditions: CCRF S-180, 48 h
[28] = tested on: LNCaP; test: Cytotoxicity against human LNCAP cells incubated for 48 hrs clonogenic survival assay; format: functional, cell-based; conditions: time 48 hrs, read-out: LD50 (the source's name)
[29] = Cytotoxicity against human TSU-Pr1 cells incubated for 2 hrs; format: functional, cell-based; conditions: TSU-Pr1, 2 h
[30] = tested on: MCF7; test: Cytotoxicity against human MCF7 cells incubated for 48 hrs by sulforhodamine B staining based ELISA; format: functional, cell-based; conditions: MCF7, 48 h
[31] = tested on: SGC-7901; test: Cytotoxicity against human SGC-7901 cells incubated for 72 hrs by Alamar Blue method; format: functional, cell-based; conditions: SGC-7901, 72 h
[32] = tested on: RKO; test: Cytotoxicity against human RKO cells incubated for 72 hrs by Cell Titer-Glo luminescence assay; format: functional, cell-based
[33] = tested on: LNCaP; test: Antiproliferative activity against human LNCaP cells incubated for 72 hrs by CCK8 assay; format: functional, cell-based
[34] = tested on: ASPC1; test: Antiproliferative activity against human ASPC1 incubated for 72 hrs by alamar blue assay; format: functional, cell-based; conditions: ASPC1, 72 h
[35] = tested on: SW480; test: Cytotoxicity against human SW480 cells incubated for 72 hrs by Cell Titer-Glo luminescence assay; format: functional, cell-based; conditions: SW480, 72 h
[36] = tested on: DU-145; test: Antiproliferative activity against human DU-145 cells incubated for 72 hrs by CCK8 assay; format: functional, cell-based; conditions: DU-145, 72 h
[37] = tested on: MGC-803; test: Cytotoxicity against human MGC-803 cells incubated for 72 hrs by Alamar Blue method; format: functional, cell-based; conditions: MGC-803, 72 h
[38] = tested on: Jurkat; test: Antiproliferative activity against human Jurkat cells incubated for 3 to 6 days by alamar blue assay; format: functional, cell-based
[39] = tested on: BXPC-3; test: Antiproliferative activity against human BXPC-3 incubated for 72 hrs by alamar blue assay; format: functional, cell-based; conditions: BXPC-3, 72 h
[40] = tested on: CFPAC-1; test: Antiproliferative activity against human CFPAC-1 incubated for 72 hrs by alamar blue assay; format: functional, cell-based; conditions: CFPAC-1, 72 h
[41] = tested on: HGC-27; test: Cytotoxicity against human HGC-27 cells incubated for 72 hrs by Alamar Blue method; format: functional, cell-based; conditions: HGC-27, 72 h
[42] = Antiproliferative activity against human PaTu8988 incubated for 72 hrs by alamar blue assay; format: functional; conditions: PaTu8988, 72 h
[43] = tested on: PANC-1; test: Cytotoxicity against human Panc-1 cells incubated for 72 hrs by alamar blue assay; format: functional, cell-based; conditions: PANC-1, 72 h
[44] = Antitumor activity against human PaTu8988 cells xenografted in NOD/SCID mouse assessed as tumor growth inhibition at 5 mg/kg, ip administered daily for 60 days by digital caliper method relative to control; format: functional; conditions: 1440 h, time 60 day, read-out: TGI
[45] = tested on: NCI-N87; test: Cytotoxicity against human NCI-N87 cells incubated for 72 hrs by Alamar Blue method; format: functional, cell-based; conditions: NCI-N87, 72 h
[46] = tested on: PC-3; test: Antiproliferative activity against human PC-3 cells incubated for 72 hrs by CCK8 assay; format: functional, cell-based; conditions: PC-3, 72 h
[47] = tested on: AGS; test: Cytotoxicity against human AGS cells incubated for 72 hrs by Alamar Blue method; format: functional, cell-based
[48] = tested on: Raji; test: Antiproliferative activity against human Raji cells incubated for 3 to 6 days by alamar blue assay; format: functional, cell-based
[49] = tested on: SW1990; test: Antiproliferative activity against human SW1990 incubated for 72 hrs by alamar blue assay; format: functional, cell-based; conditions: SW1990, 72 h

Sequence of Sarcoplasmic/endoplasmic reticulum calcium ATPase 1 (P04191 whole entry): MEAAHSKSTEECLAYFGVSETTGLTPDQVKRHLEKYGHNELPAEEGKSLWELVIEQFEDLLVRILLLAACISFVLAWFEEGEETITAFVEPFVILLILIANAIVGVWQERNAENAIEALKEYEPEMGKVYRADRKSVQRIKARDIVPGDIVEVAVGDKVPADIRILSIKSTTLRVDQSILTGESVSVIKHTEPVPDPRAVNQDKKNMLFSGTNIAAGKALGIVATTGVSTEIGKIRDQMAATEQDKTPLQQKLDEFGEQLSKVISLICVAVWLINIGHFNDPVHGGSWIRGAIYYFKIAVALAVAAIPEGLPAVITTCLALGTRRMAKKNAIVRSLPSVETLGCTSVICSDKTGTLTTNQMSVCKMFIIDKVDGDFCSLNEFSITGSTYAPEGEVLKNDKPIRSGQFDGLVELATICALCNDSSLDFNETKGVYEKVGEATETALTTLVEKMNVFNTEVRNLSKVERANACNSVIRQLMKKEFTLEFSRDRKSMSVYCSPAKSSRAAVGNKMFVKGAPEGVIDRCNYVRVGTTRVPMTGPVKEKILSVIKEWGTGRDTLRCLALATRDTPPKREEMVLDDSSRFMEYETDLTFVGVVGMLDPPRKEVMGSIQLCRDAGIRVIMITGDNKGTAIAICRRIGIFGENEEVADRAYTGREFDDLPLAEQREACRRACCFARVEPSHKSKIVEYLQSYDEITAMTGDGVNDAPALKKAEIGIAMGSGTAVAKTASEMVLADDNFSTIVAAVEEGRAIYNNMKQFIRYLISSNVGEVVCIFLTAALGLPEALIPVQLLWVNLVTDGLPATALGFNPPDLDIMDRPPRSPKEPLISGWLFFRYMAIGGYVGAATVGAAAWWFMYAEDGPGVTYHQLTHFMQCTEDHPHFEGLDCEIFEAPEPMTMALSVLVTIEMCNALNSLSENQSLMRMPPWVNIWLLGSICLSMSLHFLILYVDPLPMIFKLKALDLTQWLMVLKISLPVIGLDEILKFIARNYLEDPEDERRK

Compound: COC(=O)[C@@]12OC[C@]34[C@H]([C@@H](O)[C@@H]1O)[C@@]1(C)CC(=O)C(O)=C(C)[C@@H]1C[C@H]3OC(=O)[C@H](OC(=O)/C=C(\C)C(C)C)[C@@H]24 [BRUCEANTIN]
- IC50 [12]: 22 nM
- IC50 [13]: 29 nM

Compound: CC(C)[C@]12O[C@H]1[C@@H]1O[C@]13[C@]1(O[C@H]1C[C@H]1C4=C(CC[C@@]13C)C(=O)OC4)[C@@H]2OCOP(=O)(O)O [MINNELIDE]
- IC50 [21]: 200 nM

Compound: C/C=C(/C)C(=O)O[C@H]1C(C)=C2[C@H]([C@@H]1OC(=O)CCCCCCC)[C@@](C)(OC(C)=O)C[C@H](OC(=O)CCC)[C@@]1(O)[C@H]2OC(=O)[C@@]1(C)O [THAPSIGARGIN]
- IC50 [25]: 100 nM
- IC50 [26]: 3.9 nM
- IC50 [27]: 30 nM
- CC50 [28]: 10 nM
- IC50 [29]: 30 nM
- IC50 [30]: 2300 nM

Compound: CC(C)[C@]12O[C@H]1[C@@H]1O[C@]13[C@]1(O[C@H]1C[C@H]1C4=C(CC[C@@]13C)C(=O)OC4)[C@@H]2O [TRIPTOLIDE]
- IC50 [21]: 200 nM

Compound: CC(C)[C@]12O[C@H]1[C@@H]1O[C@@]13[C@@]1(C)CCC4=C(COC4=O)[C@@H]1C[C@@H]1O[C@@]13C2=O [TRIPTONIDE]
- IC50 [31]: < 20 nM
- IC50 [32]: 15 nM
- IC50 [33]: 10 nM
- IC50 [34]: < 20 nM
- IC50 [35]: 17 nM
- IC50 [36]: 10 nM
- IC50 [37]: < 20 nM
- IC50 [38]: 4 nM
- IC50 [39]: < 20 nM
- IC50 [40]: < 20 nM
- IC50 [41]: < 20 nM
- IC50 [42]: < 20 nM
- IC50 [43]: < 20 nM
- inhibition in vivo at 5 mg/kg [44]: 97.5%
- IC50 [45]: < 20 nM
- IC50 [46]: 12 nM
- IC50 [47]: < 20 nM
- IC50 [48]: 4 nM
- IC50 [49]: < 20 nM

More lines, main results first:

- IC50 [1]: 3.6 µM
- IC50 [3]: 5.2 µM
Compound: CC(C)[C@H]1OC(=O)C=C2[C@@]13O[C@@H]3[C@H]1OC(=O)[C@@]3(C)[C@@H](O)CC[C@@]2(C)[C@@H]13
- IC50 [2]: 720 nM

- IC50 [4]: 15 µM
- IC50 [7]: 7 µM
- IC50 [8]: 2400 nM
- IC50 [9]: 2900 nM
Compound: C=C1CC[C@@H]2[C@](C)(CO)[C@H](O)CC[C@@]2(C)[C@@H]1C/C=C1/C(=O)OC[C@H]1O [ANDROGRAPHOLIDE]
- IC50 [5]: > 40 µM
- IC50 [6]: > 30 µM
- IC50 [10]: 26 µM
- IC50 [11]: > 30 µM

- IC50 [7]: 0.13 µM
- IC50 [15]: 82 nM
- IC50 [12]: 3100 nM
- IC50 [13]: 1100 nM
Compound: COC(=O)[C@@]12OC[C@]34[C@H]([C@@H](O)[C@@H]1O)[C@@]1(C)CC(=O)C(O)=C(C)[C@@H]1C[C@H]3OC(=O)[C@H](OC(=O)CC(C)C)[C@@H]24 [BRUCEINE A]
- IC50 [14]: 230 nM
- IC50 [16]: 180 nM

- IC50 [17]: 130 nM
- IC50 [18]: 250 nM
- IC50 [19]: 500 nM
Compound: C[C@@H]1C(=O)O[C@H]2[C@H](O)[C@@]34[C@H]5C[C@@H](C(C)(C)C)[C@]36[C@@H](OC(=O)[C@@H]6O)O[C@@]4(C(=O)O5)[C@@]12O [GINKOLIDE B]
- IC50 [20]: > 50 µM

- IC50 [22]: 20 nM
- IC50 [23]: 56 µM
- IC50 [24]: 6.8 µM
Compound: CC1(C)OC(=O)C=C[C@]2(C)[C@H]3CC[C@@]4(C)[C@H](c5ccoc5)OC(=O)[C@H]5O[C@]54[C@]3(C)C(=O)C[C@@H]12 [OBACUNONE]
